Measurements reported in patent US20120016010A1, “RNA Interference Mediated Inhibition of BTB and CNC Homology 1, Basic Leucine Zipper Transcription Factor 1 (BACH1) Gene Expression Using Short Interfering Nucleic Acid (siNA)” (Merck Sharp & Dohme Corp, priority 2009, published 2012).

Legend:
Bach1 mRNA [1] = experiment: Dose-response curve of Bach1 mRNA knock-down in human A549 cells; format: cell-based; settings: for Maximum % KD in DRC: Table 6, Bach1 mRNA, mean ± SD; for IC50: Table 6, mean ± SD
Bach1 mRNA [2] = experiment: Initial screen: Bach1 mRNA knock-down in human A549 cells (96-well transfection, quantitative RT-PCR); format: cell-based; settings: for % KD: Bach1 mRNA, 10 nM siNA, human A549 cells, n = 2, mean ± S.D., normalized to GAPDH and non-targeting control, 24 hrs post-transfection; for % KD Bach1: Table 5, Bach1 mRNA screening data, A549 cells

Substance	Maximum % KD in DRC (Bach1 mRNA [1])	IC50 (Bach1 mRNA [1])	% KD (Bach1 mRNA [2])	% KD Bach1 (Bach1 mRNA [2])
29957-DC (sense GCAGUUACUUCCACUCAAGTT; antisense CUUGAGUGGAAGUAACUGCUU; inverted abasic end caps, TT overhangs, modified nucleotides, further chemistry not given here)	87 ± 0.9%	39 ± 13 pM	84.6 ± 5.4%	84.6 ± 5.4%
29956-DC (sense GUCUGAGUGUCCGUGGUUATT; antisense UAACCACGGACACUCAGACUU; inverted abasic caps (B), 2'-modified nucleotides, further chemistry not given here)	80 ± 7.7%	28 ± 18 pM	75.8 ± 7.7%	75.8 ± 7.7%
29961-DC (sense CUACACUGCUAAACUGAUUTT; antisense AAUCAGUUUAGCAGUGUAGUU; inverted abasic end caps, TT overhangs, modified nucleotides, further chemistry not given here)	89 ± 2.2%	10 ± 4 pM	90 ± 1.3%	90 ± 1.3%
29947-DC (sense GGAAUCCUGCUUUCAGUUUTT; antisense AAACUGAAAGCAGGAUUCCUU; inverted abasic caps (B), 2'-modified nucleotides, further chemistry not given here)	86 ± 0.5%	27 ± 5 pM	83.4 ± 6.9%	83.4 ± 6.9%
29964-DC (sense GAUUUGCAGGUGAUGUUAATT; antisense UUAACAUCACCUGCAAAUCUU; inverted abasic end caps, TT overhangs, modified nucleotides, further chemistry not given here)	87 ± 2.8%	27 ± 15 pM	90.1 ± 0.8%	90.1 ± 0.8%
29984-DC (sense GUUAAAGGAUUUGAACCUUTT; antisense AAGGUUCAAAUCCUUUAACUU; inverted abasic end caps, TT overhangs, modified nucleotides, further chemistry not given here)			66.2 ± 15.3%	
29988-DC (sense AUUUGAACCUUUAAUUCAGTT; antisense CUGAAUUAAAGGUUCAAAUUU; inverted abasic end caps, TT overhangs, modified nucleotides, further chemistry not given here)	84 ± 0.9%	63 ± 19 pM	86.2 ± 3.1%	86.2 ± 3.1%
